Measured values published in the supplement of paper PMC10307832.

Key:
Test in all cases: relative viability (nuclei count vs DMSO), 5 days (fraction); higher = more cells survive
[1] = compound: Cn1nnc2c(C(N)=O)ncn2c1=O [Temozolomide] + C[C@@H](Oc1cc(-c2cnn(C3CCNCC3)c2)cnc1N)c1c(Cl)ccc(F)c1Cl [Crizotinib] (partner 1 µM)
Summary of the method: (§1)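 One day after seeding in 1536-well plates, lung cancer cell lines were dosed by pin tool. Dosing was either single-drug or a fixed anchor-drug dose plus five library-drug doses (not always all listed) in √10 steps. After 5 days, nuclei were stained in one fix-and-stain step and counted on 4× images, and relative viability is the nuclei count of treated wells over that of vehicle wells, given as the median of duplicate plates.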

AZD5582 + Vorinostat = compound: C[C@@H](C(=O)N[C@@H](C1CCCCC1)C(=O)N2CCC[C@H]2C(=O)N[C@@H]3[C@@H](CC4=CC=CC=C34)OCC#CC#CCO[C@@H]5CC6=CC=CC=C6[C@@H]5NC(=O)[C@@H]7CCCN7C(=O)[C@H](C8CCCCC8)NC(=O)[C@H](C)NC)NC [AZD5582] + O=C(CCCCCCC(=O)Nc1ccccc1)NO [Vorinostat] (partner 1 µM)
Summary of the method: as §1

AZD5582 + AZD7762 = compound: C[C@@H](C(=O)N[C@@H](C1CCCCC1)C(=O)N2CCC[C@H]2C(=O)N[C@@H]3[C@@H](CC4=CC=CC=C34)OCC#CC#CCO[C@@H]5CC6=CC=CC=C6[C@@H]5NC(=O)[C@@H]7CCCN7C(=O)[C@H](C8CCCCC8)NC(=O)[C@H](C)NC)NC [AZD5582] + NC(=O)Nc1cc(-c2cccc(F)c2)sc1C(=O)N[C@H]1CCCNC1 [AZD7762] (partner 0.2 µM)
Summary of the method: as §1

Temozolomide + Foretinib = compound: Cn1nnc2c(C(N)=O)ncn2c1=O [Temozolomide] + COc1cc2c(Oc3ccc(NC(=O)C4(C(=O)Nc5ccc(F)cc5)CC4)cc3F)ccnc2cc1OCCCN1CCOCC1 [Foretinib] (partner 0.25 µM)
Summary of the method: as §1

Cell Line	relative viability ([1]; first compound 0.2 µM)	relative viability ([1]; first compound 0.6325 µM)	relative viability ([1]; first compound 2 µM)	relative viability ([1]; first compound 6.325 µM)	relative viability ([1]; first compound 20 µM)	relative viability (AZD5582 + Vorinostat; first compound 0.001581 µM)	relative viability (AZD5582 + Vorinostat; first compound 0.005 µM)	relative viability (AZD5582 + Vorinostat; first compound 0.01581 µM)	relative viability (AZD5582 + Vorinostat; first compound 0.05 µM)	relative viability (AZD5582 + AZD7762; first compound 0.001581 µM)	relative viability (AZD5582 + AZD7762; first compound 0.005 µM)	relative viability (AZD5582 + AZD7762; first compound 0.01581 µM)	relative viability (AZD5582 + AZD7762; first compound 0.05 µM)	relative viability (Temozolomide + Foretinib; first compound 0.2 µM)	relative viability (Temozolomide + Foretinib; first compound 0.6325 µM)	relative viability (Temozolomide + Foretinib; first compound 2 µM)	relative viability (Temozolomide + Foretinib; first compound 6.325 µM)	relative viability (Temozolomide + Foretinib; first compound 20 µM)
HCC-366	0.519	0.604	0.402	0.622	0.447	0.239	0.398	0.186	0.425	0.132	0.285	0.33	0.41	0.941	0.94	0.947	0.932	0.528
HCC-827	0.992	0.932	0.932	0.902	0.172	0.771	0.892	0.694	0.822	0.192	0.139	0.211	0.186	1.14	1.01	0.994	0.894	0.153
HOP-62	1.12	0.991	1.05	0.801	0.965	0.506	0.663	0.41	0.547	0.29	0.395	0.722	0.508	1.33	1.08	1.14	1.1	1.04
IA-LM	1.27	0.719	1.09	0.706	0.962	0.772	0.907		1					1.35	1.23	1.19	1.03	1.34
NCI-H520	0.763	0.955	0.811	0.939	0.947	0.833	0.724	0.758	0.712					0.908	0.842	0.704	0.689	0.769
NCI-H522						0.764	0.827	0.828	0.957	0.982	0.887	0.885	0.645					
NCI-H661	0.828	0.93	0.942	0.944	1.02	0.742	0.786	0.806	0.762					0.941	1.01	1.05	0.955	0.963
NCI-H1299	1.02	0.934	0.988	0.989	0.975									1.15	1.12	1.09	1.1	1.12
NCI-H1395						0.721	0.789		0.768	0.346	0.376		0.406	0.865	0.92	1.03	0.94	0.911
NCI-H1563	0.911	0.853	0.965	0.847	0.729									0.762	0.967	0.886	0.915	0.927
NCI-H1623															0.854	0.827	0.822	0.519
NCI-H1648						0.415	0.441		0.476	0.462	0.649		0.626					
NCI-H1650	1.08	1.12	1.05	0.9	0.799	0.528	0.534	0.576	0.572					1.14	1.07	1.02	0.872	0.766
NCI-H1792	0.957	1.05	1	0.76	0.972					0.647	0.625	0.585	1.02					
NCI-H1793						0.767	0.927	0.565	0.587	0.254	0.795	0.277	0.487		0.583	0.935	0.432	0.615
NCI-H2009	1.07	1.07	1.06	1.03	1.07	0.695	0.743	0.711	0.792					1.23	1.21	1.24	1.2	1.3
NCI-H2023	0.64	0.631	0.678	0.516	0.648	0.508	0.725	0.627	0.643					0.825	0.749	0.847	0.68	0.848
NCI-H2228	0.529	0.536	0.466	0.399	0.369	0.81	0.702	0.667	0.645					1.05	1.05	0.854	0.691	0.961
NCI-H2342						0.789	0.778	0.751	0.785	0.429	0.43	0.49	0.556	0.793	1	1.04	1.02	0.886
SK-LU-1	0.978	1.06	0.92	0.518	0.463	0.7	0.505	0.824	0.292					0.954	0.849	0.585	0.444	0.342
SK-MES-1	1.14	0.969	1.03	0.947	0.997	1.08	1.19	1.02	1.26					0.972	1.05	1.09	0.892	0.521
SW 900						0.435	0.444	0.364	0.295	0.539	0.491	0.544	0.31	0.924	1.2	0.955	0.732	1.25
SW 1573	0.801	0.787	0.82	0.594	0.846	0.492	0.865	1.12	1.12					0.861	0.915	0.79	0.725	0.938
UMC-11	0.774	0.646	0.692	0.632	0.333	0.396	0.391	0.381	0.354					1.11	1.06	1.16	0.872	0.57
